Earlier results on 1 compound are cited in patent US20090069433A1 (priority 2007, published 2009).

The conditions of this data set: pure capsaicinoid; background statement.

As for `COc1cc(CNC(=O)CCCC/C=C/C(C)C)ccc1O` [Capsaicin], the “pungency (Scoville scale)” value is 15,000,000-16,000,000 Scoville units.
